Values joined by “and” are separate entries in the source; they are usually repeats but may differ in a detail not shown here. Equal values may be shown once. Bounds are passed on as bounds.

In general, Kd refers to the equilibrium constant for the complex coming apart. Lower therefore signals tighter binding.

A short description of series [1]: solubility in attempts at crystallographic structural analyses. The format is physicochemical. The note with it: for crystallography with galectin-3C.
The next series addresses Galectin-3 Wild-Type (Homo sapiens, UniProt P17931). In words: competitive fluorescence polarization assay, galectin-3 wild-type. The format is binding. As for the experimental part:
Fluorescence polarization experiments were carried out either with a POLARStar plate reader and FLUOstar Galaxy software or with a PheraStarFS plate reader and PHERAstar Mars version 2.10 R3 software (BMG, Offenburg, Germany). The dissociation constant (Kd) values were determined in PBS as described earlier.[13],[18] Compounds were dissolved in neat DMSO at 20 mM and diluted in PBS to 3–6 different concentrations to be tested in duplicate.
For orientation: Polarisation of emitted light reports the rotation of a fluorescent probe.

Series [2] concerns the target T1, galectin-3C (the C-terminal domain of galectin-3) (Homo sapiens, UniProt P17931).
T1 construct: galectin-3C (the C-terminal domain of galectin-3)
In words: isothermal titration calorimetry (ITC) with galectin-3C. The format is binding. As to conditions: 301 K. The method, then: Stock solutions of the ligands were prepared in a buffer at 5 mM. The ligands were diluted with buffer to concentrations between 2 and 3 mM. […] All thermograms were integrated using NITPIC, the titration curves were fitted using SEDPHAT with error estimates using the automatic confidence interval search with projection method, and all figures were made in GUSSI.
For orientation: Isothermal titration calorimetry measures the heat released or taken up as one component is titrated into another.

The target of a further series is galectin-3 R144S (Homo sapiens, UniProt P17931, R144S). In words: competitive fluorescence polarization assay, galectin-3 R144S mutant. It is filed as binding. As for the experimental part:
(§1) Fluorescence polarization experiments were carried out either with a POLARStar plate reader and FLUOstar Galaxy software or with a PheraStarFS plate reader and PHERAstar Mars version 2.10 R3 software (BMG, Offenburg, Germany). The dissociation constant (Kd) values were determined in PBS as described earlier.[13],[18] Compounds were dissolved in neat DMSO at 20 mM and diluted in PBS to 3–6 different concentrations to be tested in duplicate. Average Kd values and SEMs were calculated from 2 to 8 single-triple point measurements showing between 20 and 80% inhibition.

The next series addresses galectin-3 R144K (Homo sapiens, UniProt P17931, R144K). In words: competitive fluorescence polarization assay, galectin-3 R144K mutant. The format is binding. As for the experimental part: as §1

Galectin-3 Wild-Type, sequence (P17931 whole entry): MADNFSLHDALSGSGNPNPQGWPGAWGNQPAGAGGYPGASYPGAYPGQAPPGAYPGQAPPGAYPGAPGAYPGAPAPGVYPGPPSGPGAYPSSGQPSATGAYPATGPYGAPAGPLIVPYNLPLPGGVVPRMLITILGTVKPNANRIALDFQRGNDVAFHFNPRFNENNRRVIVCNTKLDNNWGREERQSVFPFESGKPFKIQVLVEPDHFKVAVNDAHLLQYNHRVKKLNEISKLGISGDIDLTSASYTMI
T1 sequence (P17931 118-248 limits assumed): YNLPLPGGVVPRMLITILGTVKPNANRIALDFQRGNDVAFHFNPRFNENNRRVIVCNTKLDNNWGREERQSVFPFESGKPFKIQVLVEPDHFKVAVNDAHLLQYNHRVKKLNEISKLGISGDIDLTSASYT
galectin-3 R144K, sequence (P17931 whole entry R144K): as the sequence (P17931 whole entry) above, with R144K counted along it
galectin-3 R144S, sequence (P17931 whole entry R144S): as the sequence (P17931 whole entry) above, with R144S counted along it

Regarding `Cc1ccc(S[C@@H]2O[C@H](CO)[C@H](O)[C@H](n3cc([S+]([O-])c4ccccc4)nn3)[C@H]2O)cc1` (stereo partly drawn) [4b, p-Methylphenyl 3-deoxy-3-[4-phenylsulfinyl-1H-1,2,3-triazole-1yl] 1-thio-β-D-galactopyranoside], the solubility entry in series [1] is listed as “insufficient solubility”. The “inhibition at the highest tested concentration” value at Galectin-3 Wild-Type (2 mM, fluorescence polarization, galectin-3) was “b Weak inhibition at the highest tested concentration of 4b (2 mM) did not allow for accurate determination of the Kd value”. On Galectin-3 Wild-Type (Table 1, galectin-3 wild-type, fluorescence polarization in PBS), this molecule registered a Kd of more than 600 µM.
Consider `Cc1ccc(S[C@@H]2O[C@H](CO)[C@H](O)[C@H](n3cc(Sc4ccccc4)nn3)[C@H]2O)cc1` [4a, p-Methylphenyl 3-deoxy-3-[4-phenylsulfane-1H-1,2,3-triazol-1-yl] 1-thio-β-D-galactopyranoside], for which the solubility result in series [1] is listed as “insufficient solubility”.
For `[O-][S+](c1ccccc1)c1cn([C@H]2[C@@H](O)[C@@H](CO)O[C@@H](S[C@@H]3O[C@H](CO)[C@@H](O)[C@H](O)[C@H]3O)[C@@H]2O)nn1` (stereo partly drawn) [6b, 3′-Deoxy-3′-[4-phenylsulfinyl-1H-1,2,3-triazol-1-yl] -β-D-galactopyranosyl-1-thio-β-D-glucopyranoside], the Kd in series [2] was 94.2 µM and 94 µM.
For the molecule `Cc1ccc(S[C@@H]2O[C@H](CO)[C@H](O)[C@H](n3cc(S(=O)(=O)c4ccccc4)nn3)[C@H]2O)cc1` [4c, p-Methylphenyl 3-deoxy-3-[4-phenylsulfonyl-1H-1,2,3-triazole-1yl] 1-thio-β-D-galactopyranoside], the Kd stood at 600 ± 80 µM on galectin-3 R144S and 250 ± 6 µM at galectin-3 R144K. Further, the solubility entry in series [1] is “insufficient solubility”.

The values are drawn from PMC10641817, “Ligand Sulfur Oxidation State Progressively Alters Galectin-3-Ligand Complex Conformations To Induce Affinity-Influencing Hydrogen Bonds” (Journal of Medicinal Chemistry, 2023).
